From article PMC4476799, “Englerin A Agonizes the TRPC4/C5 Cation Channels to Inhibit Tumor Cell Line Proliferation” (PLoS ONE, 2015)
Read-outs that look alike come from different tables or passages of the source.

System: cancer cell lines from the cancer cell line encyclopedia (CCLE)
Test: Cell line profiling (CLiP) proliferation experiment
Type: cell-based
Parameters: ACTIVITY_AREA: scale not given here; AMAX: unit not given here
Conditions: for IC50: read-out: Crossing Point; for EC50: read-out: Inflection Point
Procedure: Compound profiling experiment and data analysis was performed as previously described. Data was imported and plotted using the Tibco Spotfire DXP application. Lines were categorized as sensitive, intermediate and refractory as follows: Amax<-40 & Inflection Point <2 ~ Sensitive, Amax>-20 & Inflection Point >10 ~ Refractory, all else were called Intermediate. Cancer Cell line HG-U133 Plus 2 data was processed and normalized as described. […] Five sets of refractory cell lines were generated from the pool of refractory cell lines trying to match the lineage composition of the set of sensitive cell lines. The limma package was used as previously described to perform the statistical comparison.

[1] = Homo sapiens, ZR-75-30, ZR-75-30 cell line, breast, ductal_carcinoma
[2] = KYO1, KYO-1 (haematopoietic_and_lymphoid_tissue)
[3] = LP-1 (haematopoietic_and_lymphoid_tissue)
[4] = Loucy (haematopoietic_and_lymphoid_tissue)
[5] = MOLM16, cell line MOLM-16 (haematopoietic_and_lymphoid_tissue)
[6] = NCI-H1869, lung, squamous_cell_carcinoma
[7] = NCI-H2073, NCI-H2073, lung, adenocarcinoma
[8] = OCI-M1, OCI-M1, haematopoietic_and_lymphoid_tissue, acute_myeloid_leukaemia
[9] = PaTuÂ 8988s, cell line PA-TU-8988S
[10] = SH-10-TC, cell line SH-10-TC, stomach
[11] = SNU878, cell line SNU-878, liver, hepatocellular_carcinoma
[12] = SUP-M2, SUP-M2 (haematopoietic_and_lymphoid_tissue, anaplastic_large_cell_lymphoma)
[13] = T24 (urinary_tract, transitional_cell_carcinoma)
[14] = T84 (large_intestine, adenocarcinoma)
[15] = TE-1 (oesophagus, squamous_cell_carcinoma)
[16] = TEN (endometrium, clear_cell_carcinoma)
[17] = TT2609-C02 (thyroid, follicular_carcinoma)
[18] = U266B1 (haematopoietic_and_lymphoid_tissue, plasma_cell_myeloma)

In the case of `CC(C)[C@@]12C[C@@H](O)[C@@](C)(O1)[C@@H]1CC[C@@H](C)[C@H]1[C@@H]2OC(=O)/C=C/c1ccccc1` [Englerin B], the IC50 [1] is reported as > 30 µM, the EC50 [1] is reported as 29.7 µM and the IC50 (Hs766T, cell line Hs 766T, pancreas) is reported as > 30 µM. The IC50 (Hs766T, cell line Hs 766T) was > 30 µM, the IC50 (Hs 940.T cells) was > 30 µM and the IC50 (IGR-39, cell line IGR-39, skin) was > 30 µM. The IC50 (IGR-39, cell line IGR-39) was > 30 µM, the IC50 (JHH7, JHH-7) was 13.7 µM and the IC50 (JHH-2, JHH-2) was > 30 µM. For the same compound, the IC50 (JHH-2, cell line JHH-2) was > 30 µM, the IC50 (JHH-5) was 12.4 µM and the IC50 (JHOM-1) was 28.8 µM. For the same compound, the EC50 (JHOM-1) was 28.8 µM, the IC50 (JHUEM-2) was 15.2 µM and the IC50 (JHUEM-2 cells) was 15.2 µM. The IC50 (K029AX (skin)) was > 30 µM, the IC50 (K029AX) was > 30 µM and the EC50 (K029AX) was 26.4 µM. It also gave an IC50 (KASUMI-2) of 15.8 µM, an EC50 (KASUMI-2) of 10.6 µM and an IC50 (KASUMI-2 cells) of 15.8 µM. The EC50 (KASUMI-2 cells) was 10.6 µM, the EC50 (KHM-1B, KHM-1B cells) was 17.2 µM and the IC50 (KHM-1B) was 19.5 µM. The EC50 (KHM-1B) was 17.2 µM, the IC50 (KMM-1, KMM-1) was 15.7 µM and the IC50 (KMRC-1, KMRC-1) was > 30 µM. For the same compound, the IC50 (KMRC-1, KMRC-1 cells) was > 30 µM, the IC50 (KMRC-2) was > 30 µM and the IC50 (KMRC-2 cells) was > 30 µM. For the same compound, the IC50 (KMRC-20) was > 30 µM, the EC50 (KMRC-20) was 0.14 µM and the IC50 (KMRC-20 cells) was > 30 µM. The EC50 (KMRC-20 cells) was 0.14 µM, the IC50 (KMS-26, KMS-26) was 15.5 µM and the EC50 (KMS-26, KMS-26) was 16.6 µM. For the same compound, the EC50 (KMS-26, KMS-26 cells) was 16.6 µM, the IC50 (KMS-27, KMS-27) was 28.4 µM and the EC50 (KMS-27, KMS-27) was 28.4 µM. The IC50 (KMS-27, KMS-27 cells) was 28.4 µM, the EC50 (KMS-27, KMS-27 cells) was 28.4 µM and the IC50 (KMS-28BM) was 29.2 µM. For the same compound, the IC50 (KMS-34, KMS-34) was 27.9 µM, the IC50 (KO52) was 27 µM and the IC50 (KP-1NL (pancreas)) was > 30 µM. For the same compound, the IC50 (KP-1NL) was > 30 µM, the IC50 (KP-N-SI9s) was 21.7 µM and the EC50 (KP-N-SI9s) was 23.1 µM. For the same compound, the IC50 (KP-N-YN (autonomic_ganglia)) was > 30 µM, the IC50 (KP-N-YN) was > 30 µM and the IC50 (KPL-1, KPL-1) was 19.9 µM. The IC50 (KS-1) was 28.3 µM, the IC50 (KURAMOCHI (ovary)) was 20.7 µM and the EC50 (KURAMOCHI (ovary)) was 16.1 µM. It also gave an IC50 (KYM-1 (soft_tissue)) of 12.7 µM, an IC50 [2] of 19.7 µM and an EC50 [2] of 12.1 µM. For the same compound, the EC50 (KYO1, KYO-1 cells) was 12.1 µM, the IC50 (Karpas-620, KARPAS-620) was 17.6 µM and the EC50 (Karpas-620, KARPAS-620) was 17.6 µM. The IC50 (Kelly) was 15.4 µM, the EC50 (Kelly) was 16 µM and the IC50 (Ki-JK (haematopoietic_and_lymphoid_tissue)) was 14.5 µM. For the same compound, the IC50 (Ki-JK) was 14.5 µM, the EC50 (Ki-JK) was 14.1 µM and the IC50 (L3.3 (pancreas)) was > 30 µM. The IC50 (LC-1/sq-SF (lung)) was > 30 µM, the EC50 (LC-1/sq-SF (lung)) was 22.8 µM and the IC50 (LK-2 (lung)) was > 30 µM. For the same compound, the IC50 (LMSU (stomach)) was 20 µM, the IC50 [3] was 18.7 µM and the EC50 [3] was 18.7 µM. For the same compound, the IC50 (LP-6 (soft_tissue)) was > 30 µM, the IC50 (Li-7 (liver)) was > 30 µM and the IC50 [4] was 13.6 µM. For the same compound, the EC50 [4] was 12.2 µM, the IC50 (MB 157 (breast)) was > 30 µM and the EC50 (MB 157 (breast)) was 14.7 µM. For the same compound, the IC50 (MCAS (ovary)) was > 30 µM, the IC50 (MDST8, MDST8 (large_intestine)) was > 30 µM and the IC50 [5] was 15.3 µM. The EC50 [5] was 15.3 µM, the IC50 (Mel202, cell line Mel202 (eye)) was > 30 µM and the EC50 (Mel202, cell line Mel202 (eye)) was 20.6 µM. For the same compound, the IC50 (Mel202, cell line Mel202) was > 30 µM, the IC50 (Mono-Mac-1, cell line MONO-MAC-1 (haematopoietic_and_lymphoid_tissue)) was 21.4 µM and the IC50 (NCI-H196, NCI-H196, lung, small_cell_carcinoma) was > 30 µM. The IC50 (NCI-H196, cell line NCI-H196) was > 30 µM, the IC50 (NCI-H841, NCI-H841, lung, small_cell_carcinoma) was 17.1 µM and the IC50 (NCI-H1568, cell line NCI-H1568 (lung)) was 6.63 µM. For the same compound, the IC50 (NCI-H1781, cell line NCI-H1781 (lung)) was 11.2 µM, the IC50 [6] was > 30 µM and the EC50 [6] was 2.95 µM. The IC50 (NCI-H1869 cells) was > 30 µM, the EC50 (NCI-H1869 cells) was 2.95 µM and the IC50 (NCI-H2023, NCI-H2023, lung, adenocarcinoma) was 13.3 µM. The IC50 [7] was 24 µM, the EC50 [7] was 20.3 µM and the IC50 (NCI-H2106, lung, non_small_cell_carcinoma) was > 30 µM. For the same compound, the IC50 (NCI-H2172, NCI-H2172, lung, non_small_cell_carcinoma) was 24.8 µM, the IC50 (NCI-H2330, lung, small_cell_carcinoma) was > 30 µM and the IC50 (OC 316, ovary, adenocarcinoma) was > 30 µM. For the same compound, the IC50 [8] was 13.5 µM, the EC50 [8] was 11.8 µM and the EC50 (OCI-M1, OCI-M1 cells) was 11.8 µM. The IC50 (OMM2.3 (eye)) was > 30 µM, the IC50 (OMM2.5 cells) was > 30 µM and the IC50 (ONCO-DG-1, cell line ONCO-DG-1) was 3.52 µM. The EC50 (OUMS-23, OUMS-23 cells) was 17.7 µM, the IC50 (OUMS-23, cell line OUMS-23) was 14.8 µM and the EC50 (OUMS-23, cell line OUMS-23) was 17.7 µM. For the same compound, the IC50 (OV7, OV7 cells) was > 30 µM, the IC50 (OV56, OV56 cells) was > 30 µM and the IC50 (OV56, cell line OV56) was > 30 µM. It also gave an EC50 (PL-21, PL-21 cells) of 26.2 µM, an IC50 (PL-21, cell line PL-21) of 21 µM and an EC50 (PL-21, cell line PL-21) of 26.2 µM. The IC50 [9] was 23.3 µM, the EC50 [9] was 23.3 µM and the IC50 (RCC10RGB cells) was > 30 µM. The EC50 (RCH-ACV cells) was 12.1 µM, the IC50 (RERF-LC-AI cells) was > 30 µM and the EC50 (RERF-LC-AI cells) was 17.9 µM. For the same compound, the IC50 (RKN (soft_tissue)) was > 30 µM, the EC50 (RKO (large_intestine)) was 13.1 µM and the IC50 (RMUG-S (ovary)) was > 30 µM. For the same compound, the IC50 (Ri-1, RI-1 cells) was 9.99 µM, the EC50 (Ri-1, RI-1 cells) was 9.99 µM and the IC50 (SH-4 (skin)) was > 30 µM. The IC50 (SH-10-TC, SH-10-TC (stomach)) was > 30 µM, the IC50 [10] was > 30 µM and the EC50 [10] was 11.1 µM. The IC50 (SNG-M (endometrium)) was > 30 µM, the IC50 [11] was 27.3 µM and the EC50 [11] was 27.3 µM. The IC50 (SNU-119 (ovary)) was > 30 µM, the IC50 (SNU-216, SNU-216 (stomach)) was > 30 µM and the IC50 (SNU-216, cell line SNU-216, stomach) was > 30 µM. The IC50 (SNU-738 (central_nervous_system)) was > 30 µM, the IC50 (SNU-C5 (large_intestine)) was > 30 µM and the IC50 (SNU-C5 (large_intestine, adenocarcinoma)) was > 30 µM. For the same compound, the IC50 (SR-786, SR-786 (haematopoietic_and_lymphoid_tissue)) was > 30 µM, the IC50 (SR-786, SR-786 (haematopoietic_and_lymphoid_tissue, anaplastic_large_cell_lymphoma)) was > 30 µM and the IC50 (SUM52, SUM-52 (breast)) was > 30 µM. For the same compound, the IC50 (SUM52, SUM-52 (breast, NS)) was > 30 µM, the IC50 (SUM52PE, SUM52PE (breast)) was > 30 µM and the IC50 (SUM52PE, SUM52PE (breast, NS)) was > 30 µM. For the same compound, the IC50 [12] was 18.2 µM, the EC50 [12] was 18.2 µM and the IC50 (SUP-M2, SUP-M2 cells) was 18.2 µM. For the same compound, the EC50 (SUP-M2, SUP-M2 cells) was 18.2 µM, the IC50 (SW1271, SW 1271 (lung)) was > 30 µM and the IC50 (SW1271, SW 1271 (lung, small_cell_carcinoma)) was > 30 µM. The IC50 (T24 (urinary_tract)) was > 30 µM, the IC50 [13] was > 30 µM and the EC50 [13] was 5 µM. For the same compound, the IC50 [14] was 28.3 µM, the EC50 [14] was 9.52 µM and the IC50 (T778 (soft_tissue)) was > 30 µM. For the same compound, the IC50 (T778 (soft_tissue, well_differentiated)) was > 30 µM, the IC50 (TC-71, TC-71 (bone, NS)) was 25.2 µM and the IC50 (TE 617.T (soft_tissue, NS)) was 16.5 µM. The EC50 (TE 617.T (soft_tissue, NS)) was 11.9 µM, the EC50 (TE 617.T cells) was 11.9 µM and the IC50 [15] was 18.9 µM. For the same compound, the EC50 [15] was 16.5 µM, the IC50 (TE-5 (oesophagus, squamous_cell_carcinoma)) was 29.6 µM and the IC50 (TE-6 (oesophagus, squamous_cell_carcinoma)) was 23.8 µM. For the same compound, the IC50 (TEN (endometrium)) was > 30 µM, the IC50 [16] was > 30 µM and the EC50 [16] was 13.1 µM. The IC50 (TF-1 (haematopoietic_and_lymphoid_tissue, acute_myeloid_leukaemia)) was 16.7 µM, the IC50 [17] was 22.3 µM and the EC50 [17] was 14.6 µM. The EC50 (TT2609-C02 cells) was 14.6 µM, the IC50 (U266B1 (haematopoietic_and_lymphoid_tissue)) was > 30 µM and the IC50 [18] was > 30 µM. For the same compound, the EC50 [18] was 16 µM, the ACTIVITY_AREA (UACC-62 cell line, skin, NS) was 41.15 and the AMAX (UACC-62 cell line, skin, NS) was -44.29. The RESPONSE (UACC-62 cell line, skin, NS) was “INTERMEDIATE”, the ACTIVITY_AREA (UACC-257 (skin, NS)) was 31.33 and the AMAX (UACC-257 (skin, NS)) was -80.26. The RESPONSE (UACC-257 (skin, NS)) was “INTERMEDIATE”.
